Assays:
[1] = target: T1, Aβ42-T7n (UniProt P00573+P05067); conditions: for Fold enrichment in negative vs. positive selection: percent reads negative vs. positive selection; for Percent total reads (negative selection) / Rank (negative selection): subsequent negative selection against Aβ42, high-throughput sequencing
From the text: To create a negative selection, we placed gIII-neg, a dominant-negative form of gIII,^44 under PT7 in our selection circuit. Inhibition of a non-target APP (ex. Aβ42) triggers pIII-neg expression and poisons phage proliferation. A second plasmid produces small amounts of pIII from the phage shock promoter (FIG. 16A). All SPs infecting cells encoding this negative selection receive sufficient pIII to propagate. However, SP that carry a promiscuous or false positive cyclic peptide will also produce pIII-neg and generate non-infectious progeny (FIGS. 16B and 16C). We subjected the hIAPP round 5 phage population to four rounds of negative selection, diluting the phage by 100-fold each round (FIG. 5B).
(§1) Single colonies of host cells transformed with the appropriate selection plasmids were used to make overnight cultures in 2×YT with maintenance antibiotics. The overnight culture was diluted (1:100) into 4-5 mL DRM with maintenance antibiotics and incubated at 37° C. with shaking until the OD600 of the culture reached ˜0.5, upon which the expanded phage library was added at a titer of 1×10^6 pfu/mL. The culture was incubated at 37° C. with shaking overnight (13-18 h). The next day, the culture was centrifuged at 8,000 rcf for 2 min to obtain the supernatant containing phage. The collected phage was diluted into fresh host cell cultures (10 to 1,000-fold) for the next round of selection, while the rest was stored at 4° C. for downstream analysis. This process was repeated until a significant increase in phage propagation was observed compared with the parent library. Both positive and negative selection rounds were performed using this procedure.
(§2) Sample preparation. Phage stocks collected from the final rounds of library selection were first amplified using LY0145 and LY0146. The PCR product was purified, and adapters added using LY0147 and LY0148. The resulting PCR product was purified and barcoded through a final PCR using index primers to add unique indices for shared Illumina NovaSeq sequencing. The final PCR product was purified, and the concentration measured by Nanodrop. Further sample quality control was performed by the University of Wisconsin-Madison Biotechnology Center (UWBC).
(§3) High-throughput sequencing and data analysis. High-throughput sequencing was performed by UWBC using a shared sequencing service on the NovaSeq 6000 platform. Sequencing reads were demultiplexed by UWBC and analyzed using custom-written Python scripts.

[2] = target: hIAPP-T7n (UniProt P00573+P10997); conditions: positive selection on hIAPP, high-throughput sequencing; for Rank (positive selection): top enriched sequences
Sequence of hIAPP-T7n (P10997+P00573 fused): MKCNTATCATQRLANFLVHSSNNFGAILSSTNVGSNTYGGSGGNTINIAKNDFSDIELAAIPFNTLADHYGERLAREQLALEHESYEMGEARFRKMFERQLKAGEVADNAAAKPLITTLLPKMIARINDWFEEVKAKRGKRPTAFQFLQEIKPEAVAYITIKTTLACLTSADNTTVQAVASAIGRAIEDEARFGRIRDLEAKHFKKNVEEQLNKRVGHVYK
From the text: Next, we examined if our system could discover inhibitors of other disease-associated APPs. We targeted human islet amyloid polypeptide (hIAPP), which forms amyloid deposits in patients with type-2 diabetes that are hypothesized to contribute to […] dysfunction.^40 To create a selection for hIAPP aggregation inhibitors, we simply cloned hIAPP in place of Aβ42 in our selection circuit (FIG. 2B). We used an SP-encoded CZ6 SICLOPPS library (Z=NDT codon encoded amino acid: R, N, D, C, G, H, I, L, F, S, Y, or V) (˜3×10^6 total sequences). This codon set was chosen to reduce the theoretical library size and facilitate library cloning. The library (total of ˜5×10^6 transformants) was cloned on a SP obtained from an additional 250 hours of PACE using a more stringent selection (FIGS. 10A-10D).
We performed five rounds of selection, diluting the SP pool by ten-fold each round (FIG. 4A). […] To verify that we selected phage with higher activity, we measured the propagation of the SP from each round on hIAPP selection cells, normalizing input phage titers to […] to enable head-to-head comparison between phage pools.
as §1, §2, §3

[3] = target: T1, Aβ42-T7n; conditions: cyclo-CX6 library, seven rounds on Aβ42-T7n, deep sequencing
Description: as §1
Sample preparation. Phage stocks collected from the final rounds of library selection were first amplified using LY0145 and LY0146. The PCR product was purified, and adapters added using LY0147 and LY0148. […] The final PCR product was purified, and the concentration measured by Nanodrop. […]
High-throughput sequencing and data analysis. […] Sequencing reads were demultiplexed by UWBC and analyzed using custom-written Python scripts.

[4] = target: T1, Aβ42-T7n
From the text: Therefore, we turned to a split-T7 RNA polymerase (T7 RNAP) reporter used to evolve proteins with improved soluble expression.^33 In our new selection, host E. coli express an aggregation-prone protein (APP) fused to the N-terminal half of split-T7 RNAP (T7n). When the APP-T7n fusion is translated, it misfolds due to the APP, preventing T7n from associating with the C-terminal half of split-T7 RNAP (T7c; FIG. 2A). If a SP-encoded inhibitor binds to and prevents APP aggregation, the fused T7n will remain folded and join with T7c to produce full-length T7 RNAP. The reconstituted T7 RNAP then transcribes gIII, which we place under control of the T7 promoter (PT7), producing pill and allowing the SP to reproduce (FIGS. 2A and 2B).
We used the SICLOPPS method to biosynthesize cyclic peptides that can be selected in E. coli.^15 In SICLOPPS, a precursor fusion consisting of the C-terminal half of the Ssp DnaE split intein, the peptide sequence to be cyclized, and the N-terminal half of the same split intein undergoes intein splicing after translation to produce head-to-tail cyclized peptides (FIG. 7).
Strain S206035 was used for plasmid cloning, amplification, and phage assays. Strain S220835 was used for SP cloning and plaque assays. Plasmids and SPs were cloned by USER assembly or blunt-end ligation. Competent cells were prepared and transformed using the TSS method. Phage propagation and plaque assays were performed as previously described.^54 Unless otherwise noted, phage propagation assays used an input of […] phage to infect a 2 mL culture of host cells.

[5] = test system: Aβ42-GFP; assay: Aβ42-GFP folding reporter fluorescence assay; type: cell-based, E. coli; conditions: expressed from plasmid, 0.04 mM IPTG, compared with CKVWQLL (FIG. 3H)
Sequence of Aβ42-GFP (P05067 672-713): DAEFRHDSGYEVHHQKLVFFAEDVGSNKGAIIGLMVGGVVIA
Description: Single colonies of S2060s transformed with pBL066c and SICLOPPS plasmid were used to make overnight cultures in 2×YT with maintenance antibiotics. The overnight culture was diluted (1:100) into 1 mL DRM on a 96 deep-well plate (VWR, 75870-796) with maintenance antibiotics and IPTG (0, 0.04, 0.2, or 1 mM). The diluted culture was incubated at 37° C. with shaking for 2.5 h, after which aTc (200 ng/mL) was added. 100 μL of the culture was transferred onto a black clear-bottom 96-well plate (VWR, 89131-680) to measure fluorescence signal 2, 3, 5 h after addition of aTc. GFP fluorescence signal (excitation wavelength=485 nm, emission wavelength=535 nm) was then measured using a Tecan M Plex microplate reader.

[6] = target: T2, hIAPP (Homo sapiens, UniProt P10997); assay: ThT fluorescence assay of in vitro hIAPP aggregation; type: biochemical; conditions: chemically synthesized peptide, 10 μM hIAPP, PBS pH 6.9, 32° C., quiescent
T2 construct: A 1 mg portion of amylin trifluoroacetate salt (Bachem) was purchased as lyophilized solid in a vial; purchased Bachem
T2 sequence (P10997 34-70 limits assumed): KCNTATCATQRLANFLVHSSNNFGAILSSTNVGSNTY
Description: Preparation of ThT stock solution. To prepare a stock solution of ThT (2-3 mM), 2-4 mg of ThT was added to 3 mL PBS (pH 6.9) in a 15 mL conical tube. The solution was sonicated for 5 min and the supernatant was filtered through a 0.22 μm syringe filter into a 1.5 mL Eppendorf tube. This was the ThT stock solution to be used in following experiments. 2 mL of a 1:200 diluted ThT solution was prepared by adding 10 μL ThT stock solution into 1990 μL PBS. The absorbance of the diluted ThT solution measured at 412 nm was used to calculate the ThT stock concentration using an extinction coefficient (c) of 31600 M^−1 cm^−1.
Preparation of hIAPP stocks. A 1 mg portion of amylin trifluoroacetate salt (Bachem) was purchased as lyophilized solid in a vial. The solid was dissolved in pre-chilled 2562 μL 35 mM sodium acetate (pH 5.3) to a stock concentration of 100 μM on ice. Aliquots of hIAPP were prepared by transferring 200 μL of the 100 μM hIAPP stock solution to low-protein-binding Eppendorf tubes on ice. The aliquots were then immediately snap frozen using liquid N2, lyophilized for 24 h, and stored at −80° C. until use.
Preparation of samples for ThT assays. Using cyclic peptide stock solution (100 μM) and PBS, 400 μL aqueous solution of cyclic peptide was prepared in a low-protein-binding Eppendorf tube to achieve the desired cyclic peptide:hIAPP molar ratio (80 μM for 4:1, 40 μM for 2:1, 20 μM for 1:1, 10 μM for 0.5:1, 0 μM for 0:1). 30 μL of the solution was then loaded to wells on a black clear-bottom low-binding 96-well plate (Corning 3881) to make a triplicate for each condition. This plate loaded with aqueous solutions of cyclic peptides was then ready for adding hIAPP.
Preparation and addition of hIAPP for ThT assays. Using ThT stock solution and PBS, 1 mL ThT solution (10 μM) was prepared in a low-protein-binding Eppendorf tube and chilled on ice. 0.5 mL of the pre-chilled ThT solution was added to one aliquot of lyophilized hIAPP, which was equilibrated to room temperature before opening the tube. Pipetting up and down four times was performed to facilitate complete dissolving of hIAPP. The 0.5 mL hIAPP-containing solution was immediately transferred to the remaining 0.5 mL ThT solution on ice. Pipetting up and down four times was performed to facilitate complete mixing. The resulting 1 mL hIAPP solution, where [hIAPP]=20 μM, was immediately transferred to a 25 mL liquid reservoir. Using a multi-channel pipette, 30 μL of the hIAPP solution was quickly loaded into wells containing aqueous solutions of cyclic peptides on the 96-well plate. Final [hIAPP]=10 μM, [ThT]=5 μM.
ThT assay conditions. The plate was then quickly covered and incubated in a Tecan M Plex microplate reader under quiescent condition at 32° C. for at least 12 h. ThT fluorescence at 480 nm was measured every 5 min through the bottom of the plate using an excitation wavelength of 440 nm.
Fitting of aggregation kinetics. ThT aggregation kinetics data was fit to a sigmoidal function using GraphPad Prism and the aggregation lag time (tlag) and the apparent fibril elongation rate (kapp) calculated as described.^55

T1 sequence (P05067+P00573 fused): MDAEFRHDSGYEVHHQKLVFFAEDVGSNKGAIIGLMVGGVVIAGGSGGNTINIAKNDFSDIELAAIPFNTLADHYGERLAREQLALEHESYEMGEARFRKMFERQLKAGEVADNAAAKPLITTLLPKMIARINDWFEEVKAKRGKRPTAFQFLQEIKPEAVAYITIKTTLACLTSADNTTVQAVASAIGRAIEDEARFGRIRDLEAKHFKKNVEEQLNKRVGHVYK

Substance	Fold enrichment in negative vs. positive selection [1]	Percent total reads (negative selection) [1]	Rank (negative selection) [1]	Percent total reads (positive selection) [2]	Rank (positive selection) [2]	share of total sequencing reads in final SP pool [3]	phage propagation activity (fitness) on Aβ42-T7n selection ([4]; clonal SP encoding the sequence)	activity in Aβ42-GFP folding reporter assay [5]	discrimination between active SP and scrambled control (phage propagation) ([4]; evolved SP (PACE 1 clone 2) (FIG. 2D))	increase in phage proliferation compared to SP carrying scrambled control ([4]; parent SP, vs CVQWLKL SP (FIG. 8A))	inhibition of hIAPP aggregation (ThT fluorescence) [6]
CCGLYNI	0.48	0.15%	31	0.31%	5						
CCHSFFR	2.87	0.83%	12	0.29%	6						
CFFRGSD	81.53	4.73%	6	0.06%	18						
CFNLVVD	64.65	4.85%	5	0.08%	15						
CGIRSLG	20.09	4.48%	7	0.22%	7						
CGLGHGN	124.22	1.12%	10	0.009%	53						
CHVHSYL	3.31	6.03%	4	1.82%	2						
CISCHYG	0.92	0.12%	34	0.13%	8						
CIYFHHH	28.44	3.33%	8	0.12%	9						
CLNYFHG	20.08	7.05%	3	0.35%	3						
CNRLDVS	83.68	1.84%	9	0.02%	26						
CRVWCAR (cyclic; Circular) [cyclo-CRVWCAR]						~65%	robust propagation	comparable activity to CKVWQLL			
CVSYILL	4.21	0.45%	16	0.11%	10						
CYILSIG	1.10	0.37%	18	0.34%	4						
cyclo-CKVWQLL [CKVWQLL SP, reference compound]									~300 fold	~500 fold	
linear CDLGVFR											completely inactive
linear CHVVGVI [linear CHWGVI]											greatly reduced ability to inhibit hIAPP
linear CRCVFSG [linear CRCVSFG]											moderately inhibited hNAPP aggregation
